Experimental data taken from ChEMBL document CHEMBL1158111, “Bohemamines from a marine-derived Streptomyces sp” (J Nat Prod, 2006).
Activity calls are given as the source filed them. The rule behind the calls is not given here.

Tested on: HCT-116
Test: Growth inhibition of human HCT116 cells
Type: functional, cell-based

With `CC(C)=CC(=O)NC1=CC(=O)[C@]2(C)[C@H](O)[C@@H](Cl)[C@H](C)N12` the Activity was “inactive”.
In the case of `CC(C)=CC(=O)NC1=CC(=O)[C@]2(C)[C@H](O)C[C@H](C)N12`, the Activity is reported as “inactive”.
In the case of `CC(C)=CC(=O)NC1=CC(=O)[C@]2(C)[C@@H]3O[C@@H]3[C@H](C)N12`, the Activity is reported as “inactive”.
In the case of `CC(C)=CC(=O)NC1=CC(=O)[C@]2(C)C[C@H](O)[C@H](C)N12`, the Activity is reported as “inactive”.
